Measured values as given in the supplement of paper PMC11061612.

How the values were obtained:
Assay in all cases: combination Emax (second highest fraction inhibited in the dose matrix, 72 h); higher = more inhibition; extreme values may be limits of the assay
[1] = system: BV-173 (Chronic Myelogenous Leukemia)
Procedure, shortened: (§1)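 Cell lines in DMEM/F12 or RPMI with 10% FBS were plated in 1536-well plates, held 24 hours at 37°C, 5% CO2, then given two-drug dose matrices for 72 hours (DMSO typically 0.2%). Viability was read by CellTiter-Glo 2.0 luminescence and scaled as inhibition from 0 (vehicle wells) to 1 (blank wells). Combination Emax is the second-highest inhibition in the matrix; Bliss excess is observed combination effect minus expected EA + EB − EA·EB, EA and EB being single-agent effects.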

[2] = system: EBC-1 (Squamous Cell Lung Carcinoma)
Procedure, shortened: as §1

[3] = system: GI-1 (Glioblastoma)
Procedure, shortened: as §1

[4] = system: H-EMC-SS (Chondrosarcoma)
Procedure, shortened: as §1

[5] = system: HuP-T3 (Pancreatic Carcinoma)
Procedure, shortened: as §1

[6] = system: JHH-7 (Hepatocellular Carcinoma)
Procedure, shortened: as §1

[7] = system: KP-2 (Pancreatic Carcinoma)
Procedure, shortened: as §1

[8] = system: KU-19-19 (Bladder Carcinoma)
Procedure, shortened: as §1

[9] = system: NCI-H1573 (Lung Adenocarcinoma)
Procedure, shortened: as §1

[10] = system: NCI-H2405 (Lung Adenocarcinoma)
Procedure, shortened: as §1

[11] = system: OVISE (Ovarian Carcinoma)
Procedure, shortened: as §1

[12] = system: SCC-9 (Oral Cavity Carcinoma)
Procedure, shortened: as §1

[13] = system: SNU-C1 (Colorectal Carcinoma)
Procedure, shortened: as §1

[14] = system: VMRC-LCD (Lung Adenocarcinoma)
Procedure, shortened: as §1

Row | SMILES | combination Emax [1] | combination Emax [2] | combination Emax [3] | combination Emax [4] | combination Emax [5] | combination Emax [6] | combination Emax [7] | combination Emax [8] | combination Emax [9] | combination Emax [10] | combination Emax [11] | combination Emax [12] | combination Emax [13] | combination Emax [14]
1 | CC1(C)CCC(CN2CCN(c3ccc(C(=O)NS(=O)(=O)c4ccc(NCC5CCOCC5)c([N+](=O)[O-])c4)c(Oc4cnc5[nH]ccc5c4)c3)CC2)=C(c2ccc(Cl)cc2)C1 [Venetoclax] + C[C@@H](Nc1cc(F)cc(F)c1)c1cc(C(=O)N(C)C)cc2c(=O)cc(N3CCOCC3)oc12 [AZD8186] (first compound max 1 µM, 7x7, partner max 3 µM) | 0.82 | 0.209 | 0.28 | 0.323 | 0.119 | 0.0915 | 0.0788 | 0.0745 | 0.162 | 0.0892 | 0.238 | 0.193 | 0.063 | 0.093
2 | Cc1c2c(nn1C)CSCc1cc(n(C)n1)CSc1cc(c3ccccc3c1)OCCCc1c(C(=O)O)n(C)c3c-2c(Cl)ccc13 [AZD5991] + C=CCn1c(=O)c2cnc(Nc3ccc(N4CCN(C)CC4)cc3)nc2n1-c1cccc(C(C)(C)O)n1 [AZD1775] (first compound max 1 µM, partner max 1 µM) | 0.942 | 0.299 | 0.958 | 0.399 | 0.457 | 0.415 | – | 0.891 | 0.427 | 0.262 | 0.633 | 0.331 | 0.395 | 0.506
3 | CC1(C)CCC(CN2CCN(c3ccc(C(=O)NS(=O)(=O)c4ccc(NCC5CCOCC5)c([N+](=O)[O-])c4)c(Oc4cnc5[nH]ccc5c4)c3)CC2)=C(c2ccc(Cl)cc2)C1 [Venetoclax] + COc1cc(Nc2ncc3c(n2)-c2ccc(Cl)cc2C(c2c(F)cccc2OC)=NC3)ccc1C(=O)O [Alisertib] (first compound max 1 µM, 7x7, partner max 10 µM) | 0.971 | 0.436 | 0.506 | 0.658 | 0.337 | 0.287 | 0.267 | 0.462 | 0.378 | 0.228 | 0.578 | 0.274 | 0.251 | 0.619
4 | COc1cccc(OCCCN)c1-c1cc(Nc2cnc(C#N)cn2)n[nH]1 [Prexasertib] + O=C(c1cc(Cc2n[nH]c(=O)c3ccccc23)ccc1F)N1CCN(C(=O)C2CC2)CC1 [Olaparib] (first compound max 1 µM, 7x7, partner max 10 µM) | 0.994 | 0.603 | 0.933 | 0.31 | 0.695 | 0.442 | 0.289 | 0.886 | 0.608 | 0.368 | 0.689 | 0.464 | 0.663 | 0.679
5 | COc1nnc2ccc(N3CCC(c4ccc(OCCN5CCN(C)C(=O)[C@H]5C)cc4)CC3)nn12 [AZD5153] + Cn1cnc2c(F)c(Nc3ccc(Br)cc3Cl)c(C(=O)NOCCO)cc21 [Selumetinib] (first compound max 1 µM, 7x7, partner max 10 µM) | 0.936 | 1 | 0.705 | 0.368 | 0.692 | 0.512 | 0.54 | 1 | 0.755 | 0.521 | 0.626 | 0.75 | 0.83 | 0.575
6 | CC1(C)CCC(CN2CCN(c3ccc(C(=O)NS(=O)(=O)c4ccc(NCC5CCOCC5)c([N+](=O)[O-])c4)c(Oc4cnc5[nH]ccc5c4)c3)CC2)=C(c2ccc(Cl)cc2)C1 [Venetoclax] + Cn1cnc2c(F)c(Nc3ccc(Br)cc3Cl)c(C(=O)NOCCO)cc21 [Selumetinib] (first compound max 1 µM, 7x7, partner max 3 µM) | 0.906 | 0.768 | 0.179 | 0.341 | 0.316 | 0.145 | 0.455 | 0.748 | 0.289 | 0.373 | 0.206 | 0.386 | 0.467 | 0.109
7 | CCN(CCO)CCCOc1ccc2c(Nc3cc(CC(=O)Nc4cccc(F)c4)[nH]n3)ncnc2c1 [AZD2811] + C=CCn1c(=O)c2cnc(Nc3ccc(N4CCN(C)CC4)cc3)nc2n1-c1cccc(C(C)(C)O)n1 [AZD1775] (first compound max 1 µM, partner max 1 µM) | 0.987 | 0.24 | 0.947 | 0.257 | 0.197 | 0.162 | 0.206 | 0.765 | 0.178 | 0.128 | 0.571 | 0.172 | 0.151 | 0.553
8 | Cn1cnc2c(F)c(Nc3ccc(Br)cc3Cl)c(C(=O)NOCCO)cc21 [Selumetinib] + CCN(CCO)CCCOc1ccc2c(Nc3cc(CC(=O)Nc4cccc(F)c4)[nH]n3)ncnc2c1 [AZD2811] (first compound max 10 µM, 7x7, partner max 1 µM) | 0.952 | 0.964 | 0.286 | 0.263 | 0.359 | 0.25 | 0.468 | 0.955 | 0.412 | 0.408 | 0.273 | 0.494 | 0.723 | 0.585
9 | CS(=O)(=O)CCNCc1ccc(-c2ccc3ncnc(Nc4ccc(OCc5cccc(F)c5)c(Cl)c4)c3c2)o1 [Lapatinib] + NC1(c2ccc(-c3nc4ccn5c(=O)[nH]nc5c4cc3-c3ccccc3)cc2)CCC1 [MK-2206] (first compound max 10 µM, 7x7, partner max 10 µM) | – | – | 0.899 | 0.316 | – | 0.754 | – | 0.837 | 0.723 | 0.113 | 0.928 | 0.972 | 0.631 | 0.205
10 | C=CCn1c(=O)c2cnc(Nc3ccc(N4CCN(C)CC4)cc3)nc2n1-c1cccc(C(C)(C)O)n1 [AZD1775] + O=C(c1cc(Cc2n[nH]c(=O)c3ccccc23)ccc1F)N1CCN(C(=O)C2CC2)CC1 [Olaparib] (first compound max 1 µM, partner max 10 µM) | 0.96 | 0.272 | 0.917 | 0.333 | 0.274 | 0.293 | 0.225 | 0.804 | 0.325 | 0.192 | 0.619 | 0.265 | 0.313 | 0.34
11 | COc1nnc2ccc(N3CCC(c4ccc(OCCN5CCN(C)C(=O)[C@H]5C)cc4)CC3)nn12 [AZD5153] + CC1(C)CCC(CN2CCN(c3ccc(C(=O)NS(=O)(=O)c4ccc(NCC5CCOCC5)c([N+](=O)[O-])c4)c(Oc4cnc5[nH]ccc5c4)c3)CC2)=C(c2ccc(Cl)cc2)C1 [Venetoclax] (first compound max 1 µM, 7x7, partner max 1 µM) | 0.921 | 0.802 | 0.763 | 0.27 | 0.517 | 0.348 | 0.354 | 0.63 | 0.356 | 0.319 | 0.549 | 0.407 | 0.46 | 0.489
12 | CN(CCO)CC[C@H](CSc1ccccc1)Nc1ccc(S(=O)(=O)NC(=O)c2ccc(N3CCC([C@@H](O)c4ccccc4-c4ccc(Cl)cc4)CC3)cc2)cc1S(=O)(=O)C(F)(F)F [AZD4320] + CN(C)CCCOc1ccc(-c2ccc3ncc4c(c3c2)n(C2CCOCC2)c(=O)n4C)cn1 [AZD0156] (first compound max 1 µM, 7x7, partner max 1 µM) | 0.95 | 0.944 | 0.342 | 0.46 | – | 0.425 | 0.897 | 0.098 | 0.2 | 0.224 | 0.806 | 0.26 | 0.439 | 0.0958
13 | C=CCn1c(=O)c2cnc(Nc3ccc(N4CCN(C)CC4)cc3)nc2n1-c1cccc(C(C)(C)O)n1 [AZD1775] + C1CN(CCC1(C(=O)N[C@@H](CCO)C2=CC=C(C=C2)Cl)N)C3=NC=NC4=C3C=CN4 [Capivasertib] (first compound max 3 µM, partner max 3 µM) | – | 0.7 | 0.907 | 0.464 | 0.655 | 0.727 | 0.498 | 0.856 | 0.604 | 0.572 | 0.651 | 0.638 | 0.568 | –
14 | C[C@@H](c1ccc2nccn2c1)n1nnc2ncc(-c3cnn(C)c3)nc21 [Savolitinib] + CN(CC[C@H](CSC1=CC=CC=C1)NC2=C(C=C(C=C2)S(=O)(=O)NC(=O)C3=CC=C(C=C3)N4CCC(CC4)[C@H](C5=CC=CC=C5C6=CC=C(C=C6)Cl)O)S(=O)(=O)C(F)(F)F)CCO [AZD4320] (first compound max 1 µM, 7x7, partner max 1 µM) | 0.954 | 1 | – | – | 0.203 | – | 0.855 | 0.194 | 0.218 | 0.271 | 0.7 | – | – | –
15 | CC(=O)c1c(C)c2cnc(Nc3ccc(N4CCNCC4)cn3)nc2n(C2CCCC2)c1=O [Palbociclib] + CN(CC[C@H](CSC1=CC=CC=C1)NC2=C(C=C(C=C2)S(=O)(=O)NC(=O)C3=CC=C(C=C3)N4CCC(CC4)[C@H](C5=CC=CC=C5C6=CC=C(C=C6)Cl)O)S(=O)(=O)C(F)(F)F)CCO [AZD4320] (first compound max 10 µM, 7x7, partner max 1 µM) | 0.958 | 0.875 | – | – | 0.274 | – | 0.743 | 0.54 | 0.306 | 0.351 | 0.889 | – | – | –
16 | COc1nnc2ccc(N3CCC(c4ccc(OCCN5CCN(C)C(=O)[C@H]5C)cc4)CC3)nn12 [AZD5153] + CN(CC[C@H](CSC1=CC=CC=C1)NC2=C(C=C(C=C2)S(=O)(=O)NC(=O)C3=CC=C(C=C3)N4CCC(CC4)[C@H](C5=CC=CC=C5C6=CC=C(C=C6)Cl)O)S(=O)(=O)C(F)(F)F)CCO [AZD4320] (first compound max 1 µM, 7x7, partner max 1 µM) | 0.957 | 1 | – | – | 0.512 | – | 0.945 | 0.755 | 0.356 | 0.443 | 0.9 | – | – | –
